Experimental data published in PubChem BioAssay AID330 (DTP/NCI, 2004).
Several values for one entry are separate records, joined by “and”; a condition that tells them apart may be missing. Identical values can stand only once. Toxic doses and inconclusive results are not listed. Rule for the calls: active = survival T/C of 150% or more; inactive = T/C below 125% in these data.

System: P388 leukemia ip, CD2F1 mice, survival T/C
Assay: NCI In Vivo Anticancer Drug Screen. Data for tumor model P388 Leukemia (intraperitoneal) in CD2F1 (CDF1) mice
Conditions: endpoint: median survival time, higher = longer survival
Procedure, shortened: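 Mice carrying the transplanted tumor received test compound or vehicle. Survival was recorded in each group, and the value is the treated-group measurement divided by that of the vehicle-treated control group.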

[1] = dose: 50.0 mg/kg/injection, schedule: Q01DX005 (ip), vehicle: saline with Tween-80
[2] = dose: 100.0 mg/kg/injection, schedule: Q01DX005 (ip), vehicle: saline with Tween-80
[3] = dose: 200.0 mg/kg/injection, schedule: Q01DX005 (ip), vehicle: saline with Tween-80
[4] = dose: 50.0 mg/kg/injection, schedule: Q01DX001 (ip), vehicle: Klucel (hydroxypropylcellulose) (HPC)
[5] = dose: 100.0 mg/kg/injection, schedule: Q01DX001 (ip), vehicle: Klucel (hydroxypropylcellulose) (HPC)
[6] = dose: 60.0 mg/kg/injection, schedule: Q01DX005 (ip), vehicle: saline with Tween-80
[7] = dose: 120.0 mg/kg/injection, schedule: Q01DX005 (ip), vehicle: saline with Tween-80
[8] = dose: 240.0 mg/kg/injection, schedule: Q01DX005 (ip), vehicle: saline with Tween-80

Measured: T/C

O=C(O)CCC(Nc1ncnc2nc[nH]c12)C(=O)O (stereo unspecified)
inactive: [1] 92 % of control | [2] 97 % of control | [3] 89 % of control

CC(C)OSc1ccccc1
inactive: dose: 12.5 mg/kg/injection, schedule: Q01DX001 (ip), vehicle: Klucel (hydroxypropylcellulose) (HPC) 113 % of control | dose: 25.0 mg/kg/injection, schedule: Q01DX001 (ip), vehicle: Klucel (hydroxypropylcellulose) (HPC) 113 % of control | [4] 102 % of control | [5] 103 % of control and 107 % of control and 97 % of control

CNC(=O)Nc1[nH]c(=O)ncc1Cl
inactive: [6] 112 % of control | [7] 113 % of control

C1=CN2C(c3ccccc3)=NON(c3ncccn3)C2N=C1 (stereo unspecified)
inactive: [6] 96 % of control | [7] 91 % of control | [8] 90 % of control

Cc1ccc(OP(=O)(Oc2ccc(C)cc2)Oc2ccc(C)cc2)cc1.Cc1ccc(OP(=O)(Oc2ccc(C)cc2)Oc2ccc(C)cc2)cc1.[Cl][Mn][Cl]
inactive: dose: 100.0 mg/kg/injection, schedule: Q04DX003 (ip), vehicle: Klucel (hydroxypropylcellulose) (HPC) 110 % of control | dose: 200.0 mg/kg/injection, schedule: Q04DX003 (ip), vehicle: Klucel (hydroxypropylcellulose) (HPC) 115 % of control | dose: 400.0 mg/kg/injection, schedule: Q04DX003 (ip), vehicle: Klucel (hydroxypropylcellulose) (HPC) 114 % of control

CCCCN(CCCC)CN(CCCC)CCCC
inactive: dose: 12.5 mg/kg/injection, schedule: Q01DX005 (ip), vehicle: saline with Tween-80 102 % of control | dose: 25.0 mg/kg/injection, schedule: Q01DX005 (ip), vehicle: saline with Tween-80 112 % of control | [1] 104 % of control and 114 % of control

CCCCC[CH2][Ge]([CH2]CCCCC)([CH2]CCCCC)[O]C(C)=O
inactive: [4] 100 % of control and 107 % of control | [5] 101 % of control and 106 % of control | dose: 200.0 mg/kg/injection, schedule: Q01DX001 (ip), vehicle: Klucel (hydroxypropylcellulose) (HPC) 104 % of control and 115 % of control | dose: 400.0 mg/kg/injection, schedule: Q01DX001 (ip), vehicle: Klucel (hydroxypropylcellulose) (HPC) 120 % of control

CCOC(=O)C(CCC#N)(C(=O)Cc1ccc(OC)c(OC)c1)C(=O)OCC
inactive: dose: 25.0 mg/kg/injection, schedule: Q01DX009 (ip), vehicle: other 101 % of control | dose: 50.0 mg/kg/injection, schedule: Q01DX009 (ip), vehicle: other 103 % of control | dose: 100.0 mg/kg/injection, schedule: Q01DX009 (ip), vehicle: other 106 % of control | dose: 200.0 mg/kg/injection, schedule: Q01DX009 (ip), vehicle: other 103 % of control | dose: 400.0 mg/kg/injection, schedule: Q01DX009 (ip), vehicle: other 103 % of control

CCO/C(CC#N)=C(/C#N)C(=O)Nc1ccc(OC)cc1
inactive: [6] 95 % of control | [7] 93 % of control | [8] 89 % of control

Cn1c(=O)c2nc3c(=O)n(C)c(=O)n(C)c3nc2n(C)c1=O
inactive: dose: 6.25 mg/kg/injection, schedule: Q01DX009 (ip), vehicle: Klucel (hydroxypropylcellulose) (HPC) 100 % of control and 102 % of control and 118 % of control | dose: 12.5 mg/kg/injection, schedule: Q01DX009 (ip), vehicle: Klucel (hydroxypropylcellulose) (HPC) 101 % of control and 103 % of control and 116 % of control | dose: 25.0 mg/kg/injection, schedule: Q01DX009 (ip), vehicle: Klucel (hydroxypropylcellulose) (HPC) 104 % of control and 120 % of control | dose: 50.0 mg/kg/injection, schedule: Q01DX009 (ip), vehicle: Klucel (hydroxypropylcellulose) (HPC) 111 % of control

Cc1cc2nc(CN(CCN(Cc3nc4cc(C)c(C)cc4[nH]3)Cc3nc4cc(C)c(C)cc4[nH]3)Cc3nc4cc(C)c(C)cc4[nH]3)[nH]c2cc1C
inactive: dose: 12.5 mg/kg/injection, schedule: Q01DX001 (ip), vehicle: saline with Tween-80 106 % of control | dose: 25.0 mg/kg/injection, schedule: Q01DX001 (ip), vehicle: saline with Tween-80 116 % of control | dose: 50.0 mg/kg/injection, schedule: Q01DX001 (ip), vehicle: saline with Tween-80 116 % of control

CC12C(=O)NC(c3ccncc3)(c3ccccc31)C1C(=O)N(c3ccccc3)C(=O)C12 (stereo unspecified)
inactive: [6] 96 % of control | [7] 94 % of control | [8] 94 % of control

CCS/C(=C/[P+](c1ccccc1)(c1ccccc1)c1ccccc1)SC
inactive: dose: 6.25 mg/kg/injection, schedule: Q01DX005 (ip), vehicle: saline with Tween-80 101 % of control

Nn1cnc2nc[nH]c2c1=O
inactive: dose: 100.0 mg/kg/injection, schedule: Q01DX001 (ip), vehicle: saline with Tween-80 101 % of control | dose: 200.0 mg/kg/injection, schedule: Q01DX001 (ip), vehicle: saline with Tween-80 104 % of control | dose: 400.0 mg/kg/injection, schedule: Q01DX001 (ip), vehicle: saline with Tween-80 95 % of control

CN(C)CCCN=C(N)CSP(=O)(O)O
inactive: dose: 60.0 mg/kg/injection, schedule: Q01DX005 (ip), vehicle: saline 98 % of control | dose: 120.0 mg/kg/injection, schedule: Q01DX005 (ip), vehicle: saline 104 % of control

S=C([S][Sn]([c]1ccccc1)([c]1ccccc1)[c]1ccccc1)N1CCCCC1
inactive: dose: 3.12 mg/kg/injection, schedule: Q01DX009 (ip), vehicle: saline with Tween-80 99 % of control | dose: 6.25 mg/kg/injection, schedule: Q01DX009 (ip), vehicle: saline with Tween-80 104 % of control | dose: 12.5 mg/kg/injection, schedule: Q01DX009 (ip), vehicle: saline with Tween-80 107 % of control | dose: 25.0 mg/kg/injection, schedule: Q01DX009 (ip), vehicle: saline with Tween-80 112 % of control

CC(C)(C)OC(=O)C(C(=O)OC(C)(C)C)=C1C(=O)OCC1(C)C
inactive: dose: 100.0 mg/kg/injection, schedule: Q04DX003 (ip), vehicle: saline 95 % of control | dose: 200.0 mg/kg/injection, schedule: Q04DX003 (ip), vehicle: saline 103 % of control | dose: 400.0 mg/kg/injection, schedule: Q04DX003 (ip), vehicle: saline 98 % of control

c1ccc(-c2csc3nc(N4CCCCC4)cn23)cc1
inactive: dose: 100.0 mg/kg/injection, schedule: Q04DX003 (ip), vehicle: saline + Tween-80 + alcohol 107 % of control | dose: 200.0 mg/kg/injection, schedule: Q04DX003 (ip), vehicle: saline + Tween-80 + alcohol 107 % of control

CCCCCCc1cc(C(=O)NN)c2ccccc2n1
inactive: dose: 50.0 mg/kg/injection, schedule: Q01DX005 (ip), vehicle: Klucel (hydroxypropylcellulose) (HPC) 102 % of control | dose: 100.0 mg/kg/injection, schedule: Q01DX005 (ip), vehicle: Klucel (hydroxypropylcellulose) (HPC) 99 % of control | dose: 200.0 mg/kg/injection, schedule: Q01DX005 (ip), vehicle: Klucel (hydroxypropylcellulose) (HPC) 96 % of control

O=C1c2ccccc2C(=O)c2c1c(O)c1cccnc1c2O
inactive: [1] 103 % of control | [2] 100 % of control | [3] 95 % of control

CC(C)=O
inactive: dose: 2.0 % in 0.5 ml injection vol, schedule: Q01DX009 (ip), vehicle: water 97 % of control | dose: 4.0 % in 0.5 ml injection vol, schedule: Q01DX009 (ip), vehicle: water 100 % of control and 101 % of control | dose: 8.0 % in 0.5 ml injection vol, schedule: Q01DX009 (ip), vehicle: water 102 % of control and 106 % of control | dose: 16.0 % in 0.5 ml injection vol, schedule: Q01DX009 (ip), vehicle: water 105 % of control

CCCCCCCN(CCCCCCC)CC(O)c1c(OC)c2cc(Br)ccc2c2ccc(Br)cc12 (stereo unspecified)
inactive: dose: 7.5 mg/kg/injection, schedule: Q01DX009 (ip), vehicle: saline with Tween-80 93 % of control | dose: 15.0 mg/kg/injection, schedule: Q01DX009 (ip), vehicle: saline with Tween-80 100 % of control | dose: 30.0 mg/kg/injection, schedule: Q01DX009 (ip), vehicle: saline with Tween-80 93 % of control

NCCn1[nH]c(=O)c2ccncc2c1=O
inactive: dose: 100.0 mg/kg/injection, schedule: Q04DX002 (ip), vehicle: saline with Tween-80 94 % of control | dose: 200.0 mg/kg/injection, schedule: Q04DX002 (ip), vehicle: saline with Tween-80 92 % of control | dose: 400.0 mg/kg/injection, schedule: Q04DX002 (ip), vehicle: saline with Tween-80 92 % of control
